Data taken from patent publication US5821046A, “RNA oligonucleotides that bind HIV tat protein” (RiboTargets Holdings PLC, priority 1990, dated 1998).
Changes are numbered by the printed parent chain. Entries after “also recorded” stand apart in the source; their conditions may differ. Where two headings read alike, the source gives them in different places. [4sT] = 4-thio-2'-deoxythymidine; [5BrU] = 5-bromo-2'-deoxyuridine; d = 2'-deoxy (DNA); r = 2'-OH (RNA)

Columns and labels:
[1] = tested on: tat protein; assay: competition filter binding assay with chemically synthesized RNA (Table 4); parameters: species or system HIV-1; details: for IC50: 40 nM tat, read-out: D1/2; for competition for tat binding compared with unmodified RNA: competition filter binding, FIGS. 19, 21-24, 26; for drop in D1/2 compared with unmodified duplex: modified 17-mer + 14-mer duplex
Procedure: Competition binding reactions (0.5ml) in TK buffer (50 mM Tris.HCl(pH7.9 at 0.5M and 22° G), 20 mM KCl ) included 10nM ^32 p labeled 59-mer (ca. 20,000 cpm) , 40nM tat protein, 5 ug/ml calf thymus DNA, 2 ug/ml yeast tRNA, 40 units of RNAsin (Promega) and varying concentrations (0-300 nM) of unlabeled competitor RNA (59-mer [SEQ ID NO: 1; ], 29-mer [SEQ ID NO: 12] or preannealed (slow cooled from 90° C.) 14-mer [SEQ ID NO: 14; nucleotides 2-15] and 17-mer [SEQ ID NO: 13; nucleotides 1- 17]). Binding was allowed to take place for 2-15 minutes on ice and each reaction was filtered through a twice prewashed (0.6 ml of ice-cold TK buffer) Millipore GS filter (2.5 cm disks, 0.22 um pore) and the filter washed with TK buffer (0.6 ml). Dried filters were counted by liquid scintillation. Results were plotted on a graph (FIG. 19) showing counts retained on the filter versus the concentration of competitor RNA added.
Competition binding reactions (0.5 ml) in TK buffer included 10 nM duplex formed from ^32 P-labeled and unlabeled 29-mer (ca. 20,000 cpm) or 10 nM duplex formed from ^32 P-labeled and unlabeled 17-mer annealed to unlabeled 14-mer, 40 nM tat protein, 5 ug/ml calf thymus DNA, 2 ug/ml yeast tRNA and varying concentrations (0-120 nM) of unlabeled competitor RNA (29-mer or modified 29-mer (FIG. 21), or 17-mer +14-mer duplex or modified 7-mer +14-mer duplex (22, 23 and 24) and were carried out as described above.
Competition binding reactions (0-5 ml) in TK buffer included 10 nM duplex formed from ^32 P-labelled (ca. 20,000 cpm) and unlabelled 18-mer [SEQ ID NO: 13] annealed to unlabelled 15-mer [SEQ ID NO: 14], 40 nM tat protein, 5 ug/ml calf thymus DNA, 2 ug/ml yeast TRNA and varying concentrations (0-120 nM) of unlabelled competitor RNA (59-mer [SEQ ID NO: 1] or 18-mer [SEQ ID NO: 13]+15-mer [SEQ ID NO: 14] duplex, or modified 18-mer [SEQ ID NO: […]

[2] = biological target: HIV-1 Tat (Human immunodeficiency virus 1, UniProt P04608 P04608:1-86); assay: competition; D1/2; wild type 90 nM
[3] = 32P-end-labelled 29-mer 10 nM, competitor 0-120 nM
[4] = relative to 29-mer, 32P-end-labelled 29-mer 10 nM
[5] = 32P-end labelled 18-mer annealed to 15-mer
[6] = 32P-end labelled 18-mer annealed to 15-mer 10 nM, competitor 0-120 nM
[7] = relative to 14 +17 duplex, 32P-end labelled 18-mer annealed to 15-mer
[8] = BrdU series, relative to 14 +17 duplex
[9] = BrdU series, 32P-end-labelled 29-mer 10 nM, competitor 0-120 nM
[10] = 32P-end-labeled 17-mer annealed to 14-mer 10 nM, competitor 0-120 nM (dT series)
[11] = relative to 14 +17 duplex, 32P-end-labeled 17-mer annealed to 14-mer
[12] = 32P-labeled 59-mer transcript 10 nM

In the case of “2'-OmeU-23: chemically synthesized 29-mer where U23 is replaced by 2'-O-methyluridine (GCCAGANUUGAGCCUGGGAGCUCUCUGGC; 2'-O-methyluridine at U23, chemistry not fully specified)”, the IC50 [1, 3] is reported as 50 nM, the “competition for tat binding compared with unmodified RNA” value ([1]; listed as SEQ ID NO: 16) is reported as “competed as well as as unmodified 29-mer; also recorded: competes for tat binding as well as unmodified 29-mer” and the “Krel (29 or 14 +17)” value [1, 4] is reported as 1.2.

“4-thioT-24: 15-mer annealed to 18-mer where U24 is replaced by 4-thio-2'-deoxythymidine (AGCCAGAUTUGAGCAGCU; sugars from the 5' end r8 d1 r9, [4sT] at 9, backbone not given here; annealed to 15-mer strand)” was tested, and the “Krel (59-mer)” value [1, 5] was 0.7, the IC50 [1, 6] was 25 nM and the “competition for tat binding compared with unmodified RNA” value [1] was “competes for binding better than unsubstituted duplex”. The “Krel (29 or 14 +17)” value [1, 7] was 2.0.

For “4-thioT-25: 15-mer annealed to 18-mer where U25 is replaced by 4-thio-2'-deoxythymidine (AGCCAGAUUTGAGCAGCU; DNA at 10, [4sT] at 10, other sugars and backbone not given here; annealed to a 15-mer strand, further chemistry not fully specified)”, the “Krel (59-mer)” value [1, 5] was 1.5, the IC50 [1, 6] was 12 nM and the “competition for tat binding compared with unmodified RNA” value ([1]; listed as SEQ ID NO: 25) was “competes for binding better than unsubstituted duplex; also recorded: competes as well as unmodified 59-mer”. For the same molecule, the “Krel (29 or 14 +17)” value [1, 7] was 4.2.

In the case of “15 +18: duplex of unmodified 18-mer [SEQ ID NO: 13] and 15-mer [SEQ ID NO: 14] containing a U-rich bulge (chain 1 AGCCAGAUUUGAGCAGCU; chain 2 AGCUGCUCUCUGGCU; RNA, phosphodiester; duplex with U-rich bulge)”, the “Krel (59-mer)” value [1, 5] is reported as 0.3, the IC50 [1, 6] is reported as 65 nM and the “competition for tat binding compared with unmodified RNA” value [1] is reported as “competed as well as 17-mer”. The “Krel (29 or 14 +17)” value [1, 7] was 0.8.

“BrdU-23: 14-mer annealed to 17-mer where U23 is replaced by 5-bromo-2'-deoxyuridine (AGCCAGAUUUGAGCAGC; DNA at 8, [5BrU] at 8, other sugars and backbone not given here; annealed to a 14-mer strand, further chemistry not fully specified)” was tested, and the “Krel (29 or 14 +17)” value [1, 8] was 0.6, the IC50 [1, 9] was 70 nM and the “competition for tat binding compared with unmodified RNA” value [1] was “competes for tat binding less well”. For the same molecule, the “drop in D1/2 compared with unmodified duplex” value [1] was 2 fold.

“BrdU-24: 14-mer annealed to 17-mer where U24 is replaced by 5-bromo-2'-deoxyuridine (AGCCAGAUUUGAGCAGC; DNA at 9, [5BrU] at 9, other sugars and backbone not given here; annealed to a 14-mer strand, further chemistry not fully specified)” was tested, and the “Krel (29 or 14 +17)” value [1, 8] was 1.0, the IC50 [1, 9] was 45 nM and the “competition for tat binding compared with unmodified RNA” value [1] was “no effect on competition”. For the same molecule, the “competition for tat binding compared with unmodified RNA” value ([1]; listed as SEQ ID NO: 21) was “competes as well compared to unsubstituted duplex”.

For “BrdU-25: 14-mer annealed to 17-mer where U25 is replaced by 5-bromo-2'-deoxyuridine (AGCCAGAUUUGAGCAGC; sugars from the 5' end r9 d1 r7, [5BrU] at 10, backbone not given here; annealed to 14-mer strand)”, the “Krel (29 or 14 +17)” value [1, 8] was 1.1, the IC50 [1, 9] was 35 nM and the “competition for tat binding compared with unmodified RNA” value [1] was “no effect on competition”. For the same molecule, the “competition for tat binding compared with unmodified RNA” value ([1]; listed as SEQ ID NO: 22) was “competes for tat binding as well compared to unsubstituted duplex”.

“dT-23: 14-mer annealed to 17-mer where U23 is replaced by 2'-deoxythymidine (AGCCAGANUUGAGCAGC; 2'-deoxythymidine at 23, annealed 14-mer without entry, chemistry not fully specified)” was tested, and the IC50 [1, 10] was 35 nM, the “competition for tat binding compared with unmodified RNA” value [1] was “no effect on competition” and the “competition for tat binding compared with unmodified RNA” value ([1]; listed as SEQ ID NO: 17) was “competes for tat binding as well as unmodified duplex”. For the same molecule, the “Krel (29 or 14 +17)” value [1, 11] was 1.1.

For “dT-24: 14-mer annealed to 17-mer where U24 is replaced by 2'-deoxythymidine (AGCCAGAUNUGAGCAGC; 2'-deoxythymidine at 24, annealed 14-mer without entry, chemistry not fully specified)”, the IC50 [1, 10] was 30 nM, the “competition for tat binding compared with unmodified RNA” value [1] was “no effect on competition” and the “competition for tat binding compared with unmodified RNA” value ([1]; listed as SEQ ID NO: 18) was “competes for tat binding as well as unmodified duplex”. For the same molecule, the “Krel (29 or 14 +17)” value [1, 11] was 1.2.

“dT-25: 14-mer annealed to 17-mer where U25 is replaced by 2'-deoxythymidine (AGCCAGAUUNGAGCAGC; 2'-deoxythymidine at 25, annealed 14-mer without entry, chemistry not fully specified)” was tested, and the IC50 [1, 10] was 90 nM, the “competition for tat binding compared with unmodified RNA” value [1] was “competes less well compared to unmodified duplex” and the “drop in D1/2 compared with unmodified duplex” value [1] was 2-3 fold. The “Krel (29 or 14 +17)” value [1, 11] was 0.4.

“dU-23: chemically synthesized 29-mer where U23 is replaced by 2'-deoxyuridine (GCCAGANUUGAGCCUGGGAGCUCUCUGGC; 2'-deoxyuridine at 23, chemistry not fully specified)” was tested, and the IC50 [1, 3] was 55 nM, the “competition for tat binding compared with unmodified RNA” value ([1]; listed as SEQ ID NO: 15) was “competed as well as as unmodified 29-mer; also recorded: competes for tat binding as well as unmodified 29-mer” and the “Krel (29 or 14 +17)” value [1, 4] was 1.1.

“r(GCCAGAUUUGAGCCUGGGAGCUCUCUGGC) (RNA, backbone not given here) [29-mer, chemically synthesized 29-mer, top part of TAR including loop and U-rich bulge]” was tested, and the IC50 [1, 3] was 60 nM, the “Krel (59-mer)” value [1, 12] was 0.4 and the “increase in D1/2 compared with 59-mer” value [1, 12] was 2-3 fold. The IC50 ([1]; 32P-labeled 59-mer transcript 10 nM, competitor 0-300 nM) was 100 nM, the “competition for tat binding compared with unmodified RNA” value [1] was “competes for binding to tat almost as well as a 59-mer RNA transcript” and the “Krel (29 or 14 +17)” value [1, 4] was 1.0.

B1: TAR bulge CUU (ssRNA)
RNA: GGGUCUCUCUGGUUAGACCAGACUUGAGCCUGGGAGCUCUCUGGCUAACUAGGGAACCC
modifications: [23]
With B1 the IC50 [2] was 630 nM.

B2: TAR bulge CCC (ssRNA)
RNA: B1 RNA with U24C, U25C
modifications: [23,24,25]
In the case of B2, the IC50 [2] is reported as 1780 nM.

B3: TAR bulge CCU (ssRNA)
RNA: B1 RNA with U24C
modifications: [23,24]
Molecule B3 has an IC50 [2] of 1330 nM.

B4: TAR bulge U (ssRNA)
RNA: GGGUCUCUCUGGUUAGACCAGAUGAGCCUGGGAGCUCUCUGGCUAACUAGGGAACCC
modifications: [23-25]
With B4 the IC50 [2] was 673 nM.
